These results are taken from patent US7400979B2, “Method of identifying inhibitors of Lck” (Abbott Laboratories, priority 2001, dated 2008).

Assay [1] concerns the target Lck protein tyrosine kinase (Homo sapiens, UniProt P06239). In words: Lck inhibition assay: ELISA for protein tyrosine kinases. It is filed as biochemical. The note with it: poly(Glu4Tyr) substrate, 5 μM ATP, 5% DMSO, result in words. From the text:
The disclosed protocol was adapted for determining activity with respect to a specific protein tyrosine kinase, e.g. Lck. […] Adaptation of these protocols for determining the activity of a compound against other protein tyrosine kinases, for example Hck, are well within the abilities of those skilled in the art. […] The following procedure was used to assay the inhibitory effect of compounds of this invention on Lck protein tyrosine kinase activity:
Store on ice. […] Store on ice.
(In general: In an ELISA, binding on a coated surface is turned into a signal by an enzyme label.)

Assay [2] deals with Hck (Homo sapiens, UniProt P08631). In words: ELISA for protein tyrosine kinases adapted to Hck (inhibitor selectivity). The note with it: result in words; b177 defines selective as IC50 for Lck at least 10-fold lower than for the related protein. Type of assay: biochemical. From the text: The disclosed protocol was adapted for determining activity with respect to a specific protein tyrosine kinase, e.g. Lck. […] Adaptation of these protocols for determining the activity of a compound against other protein tyrosine kinases, for example Hck, are well within the abilities of those skilled in the art. […] The following procedure was used to assay the inhibitory effect of compounds of this invention on Lck protein tyrosine kinase activity: […]
Chain of Hck (P08631 whole entry): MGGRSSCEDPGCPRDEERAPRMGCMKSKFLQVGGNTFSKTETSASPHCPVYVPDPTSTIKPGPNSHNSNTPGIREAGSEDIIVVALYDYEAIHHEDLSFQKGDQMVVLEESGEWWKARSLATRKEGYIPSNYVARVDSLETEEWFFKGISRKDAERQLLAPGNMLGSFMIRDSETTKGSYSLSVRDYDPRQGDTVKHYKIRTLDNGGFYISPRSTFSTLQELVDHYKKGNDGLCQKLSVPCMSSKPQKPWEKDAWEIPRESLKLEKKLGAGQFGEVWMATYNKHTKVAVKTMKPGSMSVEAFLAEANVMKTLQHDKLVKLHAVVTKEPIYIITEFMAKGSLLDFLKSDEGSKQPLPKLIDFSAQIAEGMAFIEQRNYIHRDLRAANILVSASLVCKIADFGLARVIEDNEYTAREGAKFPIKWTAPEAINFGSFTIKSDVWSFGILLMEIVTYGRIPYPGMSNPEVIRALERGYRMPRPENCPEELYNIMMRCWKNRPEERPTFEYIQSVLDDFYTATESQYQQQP

Chain of Lck protein tyrosine kinase (P06239 whole entry): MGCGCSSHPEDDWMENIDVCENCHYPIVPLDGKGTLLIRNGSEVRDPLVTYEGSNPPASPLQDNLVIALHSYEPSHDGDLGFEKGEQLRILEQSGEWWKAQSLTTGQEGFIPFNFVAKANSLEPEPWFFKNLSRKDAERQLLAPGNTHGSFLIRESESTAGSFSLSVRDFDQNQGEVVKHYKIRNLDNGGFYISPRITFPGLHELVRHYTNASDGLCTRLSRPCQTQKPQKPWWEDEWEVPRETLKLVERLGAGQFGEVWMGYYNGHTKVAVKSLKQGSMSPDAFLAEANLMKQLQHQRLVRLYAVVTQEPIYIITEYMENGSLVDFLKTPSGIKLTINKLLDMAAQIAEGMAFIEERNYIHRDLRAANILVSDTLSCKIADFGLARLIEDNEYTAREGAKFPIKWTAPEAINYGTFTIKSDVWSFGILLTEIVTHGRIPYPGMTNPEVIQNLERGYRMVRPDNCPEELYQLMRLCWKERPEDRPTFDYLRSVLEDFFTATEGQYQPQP

Consider `CNCCCN(C)C/C=C/c1[nH]c(=O)c2c(ccc3nc(Nc4c(Cl)cccc4Cl)n(C)c32)c1C` [inhibitor 13, 2-(2,6-dichloroanilino)-1,6-dimethyl-7-((E)-3-{methyl[3-(methylamino)propyl]amino}-1-propenyl)-8,9-dihydro-1H-imidazo[4,5-h]isoquinolin-9-one], for which the “Lck inhibition (in vitro potency)” value in assay [1] was “potent inhibitor of Lck”. Moreover, the “selectivity for Lck over Hck” value in assay [2] is reported as “inhibit Lck selectively over Hck”. As for `CN1CCN([C@H]2CC[C@H](n3nc(-c4ccc(Nc5n[nH]c6ccccc56)cc4)c4c(N)ncnc43)CC2)CC1` [inhibitor 15, trans-3-[4-(1H-3-indazolylamino)phenyl]-1-[4-(4-methylpiperazino)cyclohexyl]-1H-pyrazolo[3,4-d]pyrimidin-4-amine], the “Lck inhibition (in vitro potency)” value in assay [1] was “potent inhibitor of human Lck”.
